Experiments:
[1] = molecular target: CDK9/Cyclin T1 (Homo sapiens, UniProt P50750); test: CDK9/Cyclin T1 kinase assay; format: biochemical
Method: (1). Recombinant enzymes CDK1, CDK2, CDK4, CDK6, CDK9, cyclin B1, cyclin A2, cyclin D3, cyclin E1, cyclin T1 were cloned and purified at Wuxi Biortus Biochemistry Co. Ltd.
(8) Peptide substrate-CDK9 (Ahx-GSRTPMY-NH2, Scilight-Peptide, Cat. C0769102).
The test compounds were dissolved and diluted in DMSO. A stock DMSO solution of the test compound of the invention was prepared by dissolving the compound in DMSO to form a 10 mM solution.
2 μL of testing compound solutions and 5 μL of enzyme solution were added into the 384-well microplate followed by a 10 minute incubation. The reaction was then initiated by the addition of 5 μL of peptide substrate and ATP mixture solution and incubated at 27° C. for 30 minutes. The enzyme reaction in each well was terminated by adding 4 μL of 120 mM EDTA solution. Each assay was carried out in duplicates.
DMSO was used as negative control (0%) for enzyme activity. 20 μM Staurosporine was used as positive control (100%) for enzyme activity.
Plates were read for fluorescence on a Caliper EZ Reader II by separating the fluorescent labeled substrate from the enzyme phosphorylation product by electrophoresis. Data were collected and analyzed using GraphPad Prism version 6.0 software.
Dose-response curves were plotted from inhibition data generated, each in duplicate, from 10 point serial dilutions of inhibitory compounds. Concentration of compound was plotted against % kinase activity. To generate IC50 values, the dose-response curves were then fitted to a standard sigmoidal curve and IC50 values were derived by nonlinear regression analysis.

[2] = tested on: human ovarian carcinoma OVCAR3 cell line; test: CyQUANT Direct cell proliferation assay, OVCAR-3; format: cell-based; details: OVCAR-3, 168 h, 7 days
Source text: The human ovarian carcinoma OVCAR3 cell line (ATCC HTB-161™) or human breast squamous HCC1806 cell line (ATCC CRL 2335) were obtained from American Type Culture Collection (ATCC), and maintained in culture media according to the supplier's specification.
The CyQUANT® Direct Cell Proliferation Assay Kit (Invitrogen™, catalog No. G35012) was utilized to test the inhibitory activities of the CDK2 inhibitors described in this disclosure against OVCAR3 or HCC1806 tumor cells.
CyQUANT® Direct Cell Proliferation Assay: The spent medium from the purchased tumor cell culture plate was removed and the tumor cells were washed with PBS buffer twice. Trypsin (VWR catalog No. 0458-25G) was added to digest the tumor cells until tumor cells appeared round shaped and to dissociate adherent cells from the plate wall in which they are being cultured. Then RPMI-1640 media (HCC1806, Gibco™ catalog No, A10491-01) with 10% fetal bovine serum (FBS) (Hyclone™ catalog No. SV30160.03), or RPMI-1640 media (OVCAR-3, Gibco™ catalog No. 10370-021) with 20% FBS and 0.01 mg/mL insulin was added to stop the trypsin digestion reaction. The tumor cells were lightly agitated with a liquid transfer pipette to cause tumor cells suspended in the culture media. The cells were counted. The complete medium was used to prepare tumor cell suspension.
OVCAR3 or HCC1806 cells were seeded at 40 μL/well in 384-well plates in growth media containing FBS and cultured 24 hours in the incubator at 37° C., 5% CO2. […] Compound solutions were added by Agilent Bravo liquid handler. […] The control wells contained the growth medium having 0.1% DMSO. Cells were incubated at 37° C., 5% CO2 for 7 days.
CYQUANT Direct Cell Proliferation Assay (Molecular Probes, Eugene, Oreg.) was then performed following manufacturer's instructions to prepare the detection reagents. 50 μL of detection reagent was aliquot and added to each well and the cells were incubated at 37° C. for 1 hr.
The cell culture plates were placed on TECAN M1000 microplate reader to detect the fluorescence intensity at 508 nm excitation and 527 nm emission wavelengths. Graphpad Prism 6.0 software was used for data processing, preparing cell growth curve, calculating percentage inhibition on cell growth. IC50 values were calculated by concentration-response curve fitting utilizing a four-parameter analytical method using GraphPad Prism software.

Chain of CDK9/Cyclin T1 (P50750 whole entry): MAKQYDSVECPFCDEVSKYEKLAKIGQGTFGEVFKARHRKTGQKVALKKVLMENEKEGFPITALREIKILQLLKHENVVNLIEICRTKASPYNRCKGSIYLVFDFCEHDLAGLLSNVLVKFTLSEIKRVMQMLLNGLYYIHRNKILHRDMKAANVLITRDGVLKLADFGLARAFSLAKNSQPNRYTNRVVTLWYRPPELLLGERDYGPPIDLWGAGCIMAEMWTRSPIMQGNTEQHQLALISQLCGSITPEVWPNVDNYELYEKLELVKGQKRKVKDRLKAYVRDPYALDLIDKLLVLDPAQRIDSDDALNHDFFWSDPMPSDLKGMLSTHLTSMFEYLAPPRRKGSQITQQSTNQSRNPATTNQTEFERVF
Chain of CDK9/Cyclin T1 (O60563 whole entry partner): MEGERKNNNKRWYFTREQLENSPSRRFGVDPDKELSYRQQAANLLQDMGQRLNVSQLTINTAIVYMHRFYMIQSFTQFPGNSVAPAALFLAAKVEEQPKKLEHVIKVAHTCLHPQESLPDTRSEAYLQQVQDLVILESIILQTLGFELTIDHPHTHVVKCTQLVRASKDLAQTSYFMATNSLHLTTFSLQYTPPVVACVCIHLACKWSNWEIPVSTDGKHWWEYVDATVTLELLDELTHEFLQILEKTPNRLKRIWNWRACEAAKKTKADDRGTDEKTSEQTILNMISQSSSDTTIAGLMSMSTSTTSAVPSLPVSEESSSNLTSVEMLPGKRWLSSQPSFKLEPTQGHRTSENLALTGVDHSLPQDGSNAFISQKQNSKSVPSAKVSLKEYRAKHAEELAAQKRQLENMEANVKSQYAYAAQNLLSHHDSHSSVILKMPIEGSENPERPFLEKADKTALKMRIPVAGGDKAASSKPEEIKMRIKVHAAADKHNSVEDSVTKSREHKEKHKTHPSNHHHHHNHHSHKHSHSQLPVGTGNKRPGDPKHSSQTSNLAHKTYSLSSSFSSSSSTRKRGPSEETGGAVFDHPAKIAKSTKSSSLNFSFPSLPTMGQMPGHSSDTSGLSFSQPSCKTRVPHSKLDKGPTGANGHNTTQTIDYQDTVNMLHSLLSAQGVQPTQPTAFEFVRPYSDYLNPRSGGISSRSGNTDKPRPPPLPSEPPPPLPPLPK

Row | IC50 [1] [nM] | IC50 [2] [nM] | SMILES
1 | 3440 | 40.3 | C[C@@]1(O)CCC[C@H]1n1c(=O)c(C(F)F)cc2cnc(NC3CCN(S(C)(=O)=O)CC3)nc21 [Comp. 5, (−)-6-(difluoromethyl)-8-((1R,2R)-2-hydroxy-2-methylcyclopentyl)-2-((1-(methylsulfonyl)piperidin-4-yl)amino)pyrido[2,3-d]pyrimidin-7(8H)-one, reference compound]
2 | 3640 | 32.5 | [2H]C(F)(F)c1cc2cnc(NC3CCN(S(C)(=O)=O)CC3)nc2n([C@@H]2CCC[C@@]2(C)O)c1=O [Comp. 28, (−)-6-(difluoromethyl-d)-8-((1R,2R)-2-hydroxy-2-methylcyclopentyl)-2-((1-(methylsulfonyl)piperidin-4-yl)amino)pyrido[2,3-d]pyrimidin-7(8H)-one]
